Results reported in ChEMBL document CHEMBL4765403, “Augmentation of the antitumor effects of PARP inhibitors in triple-negative breast cancer via degradation by hydrophobic tagging modulation” (Eur J Med Chem, 2020).
Active and inactive are the calls of the source. No cut-off for these calls is given here.

Legend:
MDA-MB-231 [1] = experiment: Induction of endoplasmic reticulum stress in human MDA-MB-231 cells assessed as upregulation of XBP-1s protein expression at 5 uM incubated for 48 to 72 hrs by western blot analysis; assay type: functional, cell-based; settings: time 48-72 hrs
MDA-MB-231 [2] = experiment: Induction of autophagy in human MDA-MB-231 cells assessed as upregulation of LC3B protein expression at 5 uM incubated for 48 to 72 hrs by western blot analysis; assay type: functional, cell-based; settings: time 48-72 hrs
MDA-MB-231 [3] = experiment: Induction of endoplasmic reticulum stress in human MDA-MB-231 cells assessed as upregulation of CHOP protein expression at 5 uM incubated for 48 to 72 hrs by western blot analysis; assay type: functional, cell-based; settings: time 48-72 hrs
MDA-MB-231 [4] = experiment: Cytotoxicity against human MDA-MB-231 cells assessed as reduction in cell viability measured after 96 hrs by CCK8 assay; assay type: functional, cell-based; settings: MDA-MB-231, 96 h
[5] = molecular target: Poly [ADP-ribose] polymerase 1 (Homo sapiens) (UniProt P09874); experiment: Induction of PARP1 degradation in triple-negative human MDA-MB-231 cells assessed as fold change in PARP1 protein expression at 10 uM incubated for 48 hrs by Western blot analysis relative to control; assay type: cell-based
Sequence of Poly [ADP-ribose] polymerase 1 (Homo sapiens) (P09874 whole entry): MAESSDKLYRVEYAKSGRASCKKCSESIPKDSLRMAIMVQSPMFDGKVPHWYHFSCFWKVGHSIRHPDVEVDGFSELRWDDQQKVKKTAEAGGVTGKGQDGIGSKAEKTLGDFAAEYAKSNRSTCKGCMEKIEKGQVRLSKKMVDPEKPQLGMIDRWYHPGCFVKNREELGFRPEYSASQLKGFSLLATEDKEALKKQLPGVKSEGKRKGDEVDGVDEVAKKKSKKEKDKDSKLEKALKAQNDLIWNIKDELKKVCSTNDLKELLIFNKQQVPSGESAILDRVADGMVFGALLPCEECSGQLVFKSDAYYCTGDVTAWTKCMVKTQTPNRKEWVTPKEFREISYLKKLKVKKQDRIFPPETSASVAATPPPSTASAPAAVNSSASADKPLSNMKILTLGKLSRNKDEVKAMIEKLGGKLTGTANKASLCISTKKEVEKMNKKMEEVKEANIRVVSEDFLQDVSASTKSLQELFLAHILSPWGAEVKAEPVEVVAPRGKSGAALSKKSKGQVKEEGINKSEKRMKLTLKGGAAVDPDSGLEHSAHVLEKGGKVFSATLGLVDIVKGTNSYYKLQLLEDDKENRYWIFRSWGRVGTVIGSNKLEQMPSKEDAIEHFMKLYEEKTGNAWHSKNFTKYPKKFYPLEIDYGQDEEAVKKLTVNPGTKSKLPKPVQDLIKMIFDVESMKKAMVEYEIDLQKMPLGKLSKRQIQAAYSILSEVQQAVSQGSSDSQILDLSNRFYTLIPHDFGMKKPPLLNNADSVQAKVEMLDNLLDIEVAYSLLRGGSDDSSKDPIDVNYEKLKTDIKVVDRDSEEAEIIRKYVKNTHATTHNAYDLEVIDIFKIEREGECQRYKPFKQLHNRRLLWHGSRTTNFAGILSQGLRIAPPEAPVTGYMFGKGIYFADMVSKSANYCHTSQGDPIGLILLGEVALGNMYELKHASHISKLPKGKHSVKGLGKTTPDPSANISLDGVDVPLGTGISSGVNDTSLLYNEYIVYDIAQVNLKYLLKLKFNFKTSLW

[6] = molecular target: Poly [ADP-ribose] polymerase 1 (Homo sapiens) (UniProt P09874); experiment: Induction of PARP1 degradation in triple negative human MDA-MB-231 cells assessed as fold change in PARP1 protein expression at 5 uM incubated for 48 hrs by Western blot analysis relative to control; assay type: cell-based
[7] = molecular target: Poly [ADP-ribose] polymerase 1 (Homo sapiens) (UniProt P09874); experiment: Induction of PARP1 degradation in triple-negative human MDA-MB-231 cells assessed as fold change in PARP1 protein expression at 2.5 uM incubated for 48 hrs by Western blot analysis relative to control; assay type: cell-based
MDA-MB-231 [8] = experiment: Cytotoxicity against triple-negative human MDA-MB-231 cells assessed as reduction in cell viability measured after 48 hrs by CCK8 assay; assay type: functional, cell-based; settings: MDA-MB-231, 48 h

SMILES | fold change (FC) [5] | fold change (FC) [6] | fold change (FC) [7] | Activity (MDA-MB-231 [1]) | Activity (MDA-MB-231 [2]) | Activity (MDA-MB-231 [3]) | IC50 (MDA-MB-231 [4]) | IC50 (MDA-MB-231 [8])
O=C(c1cc(Cc2n[nH]c(=O)c3ccccc23)ccc1F)N1CCN(C(=O)C2CC2)CC1 [OLAPARIB] | – | – | – | inactive | inactive | inactive | 32.4 µM | –
O=C(CC12CC3CC(CC(C3)C1)C2)NCCN1CCN(C(=O)c2cc(Cc3n[nH]c(=O)c4ccccc34)ccc2F)CC1 | 1.3 | 1.2 | 1.1 | – | – | – | – | –
O=C(NCCN1CCN(C(=O)c2cc(Cc3n[nH]c(=O)c4ccccc34)ccc2F)CC1)C(C1CCCCC1)C1CCCCC1 | 0.9 | 0.9 | 0.9 | – | – | – | – | –
O=C(CC12CC3CC(CC(C3)C1)C2)N1CCN(C(=O)c2cc(Cc3n[nH]c(=O)c4ccccc34)ccc2F)CC1 | 0.8 | 0.7 | 0.9 | – | – | – | – | –
O=C(NCCCCN1CCN(C(=O)c2cc(Cc3n[nH]c(=O)c4ccccc34)ccc2F)CC1)C(C1CCCCC1)C1CCCCC1 | 1.2 | 0.8 | 1.1 | – | – | – | – | –
O=C(c1cc(Cc2n[nH]c(=O)c3ccccc23)ccc1F)N1CCN(C(=O)C(c2ccccc2)c2ccccc2)CC1 | 1.1 | 1 | 1 | – | – | – | – | –
c1ccc2c(c1)Cc1ccccc1-2 [FLUORENE] | – | – | – | – | – | – | – | > 50 µM
O=C(CC12CC3CC(CC(C3)C1)C2)NCCCCN1CCN(C(=O)c2cc(Cc3n[nH]c(=O)c4ccccc34)ccc2F)CC1 | 1.1 | 1.2 | 1.1 | – | – | – | – | –
O=C(c1cc(Cc2n[nH]c(=O)c3ccccc23)ccc1F)N1CCN(C(=O)C(C2CCCCC2)C2CCCCC2)CC1 | 0.7 | 0.7 | 0.6 | – | – | – | – | –
O=C(CC12CC3CC(CC(C3)C1)C2)NCCCCCCN1CCN(C(=O)c2cc(Cc3n[nH]c(=O)c4ccccc34)ccc2F)CC1 | 0.8 | 1.2 | 0.9 | – | – | – | – | –
O=C(NCCCCCCN1CCN(C(=O)c2cc(Cc3n[nH]c(=O)c4ccccc34)ccc2F)CC1)C(C1CCCCC1)C1CCCCC1 | 0.3 | 0.8 | 0.9 | – | – | – | – | > 50 µM

Continued, in another order:

fold change (FC) [5] | fold change (FC) [6] | fold change (FC) [7] | SMILES | Activity (MDA-MB-231 [1]) | Activity (MDA-MB-231 [2]) | Activity (MDA-MB-231 [3]) | IC50 (MDA-MB-231 [4]) | IC50 (MDA-MB-231 [8])
0.8 | 1 | 0.8 | CC(C)Cc1ccc([C@H](C)C(=O)N2CCN(C(=O)c3cc(Cc4n[nH]c(=O)c5ccccc45)ccc3F)CC2)cc1 | – | – | – | – | –
1.3 | 1.1 | 1.3 | O=C(NCCN1CCN(C(=O)c2cc(Cc3n[nH]c(=O)c4ccccc34)ccc2F)CC1)C(c1ccccc1)c1ccccc1 | – | – | – | – | –
0.7 | 0.8 | 0.9 | CC(C)Cc1ccc([C@H](C)C(=O)NCCN2CCN(C(=O)c3cc(Cc4n[nH]c(=O)c5ccccc45)ccc3F)CC2)cc1 | – | – | – | – | –
0.4 | 0.5 | 0.5 | O=C(CC1c2ccccc2-c2ccccc21)NCCCCCCN1CCN(C(=O)c2cc(Cc3n[nH]c(=O)c4ccccc34)ccc2F)CC1 | – | – | – | – | –
0.4 | 0.3 | 0.4 | O=C(CC1c2ccccc2-c2ccccc21)NCCN1CCN(C(=O)c2cc(Cc3n[nH]c(=O)c4ccccc34)ccc2F)CC1 | – | – | – | – | 26.2 µM
1.3 | 1.5 | 1.4 | O=C(NCCCCCCN1CCN(C(=O)c2cc(Cc3n[nH]c(=O)c4ccccc34)ccc2F)CC1)C(c1ccccc1)c1ccccc1 | – | – | – | – | –
1.2 | 1.6 | 1.4 | O=C(NCCCCN1CCN(C(=O)c2cc(Cc3n[nH]c(=O)c4ccccc34)ccc2F)CC1)C(c1ccccc1)c1ccccc1 | – | – | – | – | –
0.3 | 0.7 | 1.2 | CC(C)Cc1ccc([C@H](C)C(=O)NCCCCCCN2CCN(C(=O)c3cc(Cc4n[nH]c(=O)c5ccccc45)ccc3F)CC2)cc1 | – | – | – | – | 15.9 µM
0.5 | 0.5 | 0.5 | O=C(CC1c2ccccc2-c2ccccc21)NCCCCN1CCN(C(=O)c2cc(Cc3n[nH]c(=O)c4ccccc34)ccc2F)CC1 | – | – | – | – | > 50 µM
1.7 | 1.2 | 0.9 | CC(C)Cc1ccc([C@H](C)C(=O)NCCCCN2CCN(C(=O)c3cc(Cc4n[nH]c(=O)c5ccccc45)ccc3F)CC2)cc1 | – | – | – | – | –
